Each block holds one compound with its values, some of them ahead of it.
Assays:
[1] = molecular target: T1, Mitogen-activated protein kinase kinase kinase 6 (Homo sapiens) (UniProt O95382); experiment: Selectivity interaction (Ambit KINOMEscan and KiNATiv profiling in Jurkat cells) EUB0000090b MAP3K6; type: cell-based; conditions: at 1 µM
T1 sequence (whole entry): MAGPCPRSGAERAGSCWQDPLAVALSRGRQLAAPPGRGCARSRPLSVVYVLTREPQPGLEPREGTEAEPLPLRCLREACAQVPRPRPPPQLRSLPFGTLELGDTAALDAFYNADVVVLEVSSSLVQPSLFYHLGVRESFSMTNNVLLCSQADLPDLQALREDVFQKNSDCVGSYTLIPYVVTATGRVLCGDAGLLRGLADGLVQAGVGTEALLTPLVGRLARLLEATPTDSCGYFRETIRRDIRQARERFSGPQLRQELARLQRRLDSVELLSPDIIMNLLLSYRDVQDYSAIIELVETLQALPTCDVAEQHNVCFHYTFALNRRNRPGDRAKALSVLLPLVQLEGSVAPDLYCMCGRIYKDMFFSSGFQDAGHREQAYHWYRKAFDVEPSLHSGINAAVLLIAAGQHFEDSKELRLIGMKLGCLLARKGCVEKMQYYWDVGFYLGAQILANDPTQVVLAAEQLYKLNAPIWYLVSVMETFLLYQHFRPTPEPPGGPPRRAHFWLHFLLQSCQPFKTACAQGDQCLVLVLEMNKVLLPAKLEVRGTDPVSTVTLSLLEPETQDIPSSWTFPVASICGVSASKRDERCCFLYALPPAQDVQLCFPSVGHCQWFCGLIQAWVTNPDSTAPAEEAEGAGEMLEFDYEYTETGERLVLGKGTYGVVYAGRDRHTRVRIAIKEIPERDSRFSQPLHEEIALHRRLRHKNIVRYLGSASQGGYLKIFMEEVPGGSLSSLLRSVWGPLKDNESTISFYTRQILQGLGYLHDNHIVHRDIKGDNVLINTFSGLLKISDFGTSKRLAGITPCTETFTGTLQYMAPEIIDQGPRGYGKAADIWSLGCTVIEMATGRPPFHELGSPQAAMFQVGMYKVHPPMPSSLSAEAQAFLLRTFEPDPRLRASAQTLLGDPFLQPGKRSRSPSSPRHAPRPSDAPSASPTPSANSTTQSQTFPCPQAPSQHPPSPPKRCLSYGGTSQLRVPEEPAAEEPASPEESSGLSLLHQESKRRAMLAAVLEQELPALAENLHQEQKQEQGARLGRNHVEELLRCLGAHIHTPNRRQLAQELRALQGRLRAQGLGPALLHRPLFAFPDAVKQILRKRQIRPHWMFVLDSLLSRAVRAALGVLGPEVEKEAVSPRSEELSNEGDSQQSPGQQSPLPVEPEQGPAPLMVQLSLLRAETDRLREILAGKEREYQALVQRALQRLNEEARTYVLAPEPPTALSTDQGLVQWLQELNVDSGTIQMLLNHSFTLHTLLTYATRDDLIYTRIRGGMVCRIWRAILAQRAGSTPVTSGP

[2] = system: Tyrosine-protein kinase JAK2 (Homo sapiens), O60674 [V617F]; experiment: (§1) Selectivity interaction (Kinase panel (Z-LYTE Assay)) EUB0001632a JAK2; conditions: at 10 µM
[3] = molecular target: Tyrosine-protein kinase JAK2 (Homo sapiens, UniProt O60674); experiment: as §1; conditions: at 10 µM
[4] = molecular target: Serine/threonine-protein kinase pim-1 (Homo sapiens, UniProt P11309); experiment: Selectivity interaction (Kinase panel (Z-LYTE Assay)) EUB0001632a PIM1; conditions: at 10 µM
[5] = molecular target: Serine/threonine-protein kinase MRCK alpha (Homo sapiens) (UniProt Q5VT25); experiment: Selectivity interaction (Ambit KINOMEscan) EUB0000092b CDC42BPA; conditions: at 10 µM
[6] = molecular target: Cyclin-dependent kinase 2 (Homo sapiens, UniProt P24941); experiment: Selectivity interaction (KinomeScan (DiscoverX)) EUB0000655a CDK2; conditions: at 10 µM
[7] = molecular target: T2, Mitogen-activated protein kinase kinase kinase 5 (Homo sapiens) (UniProt Q99683); experiment: Selectivity interaction (ActivX KiNativ screen (ex vivo kinase selectivity in human PBMCs)) EUB0001619a MAP3K5; type: cell-based; conditions: PBMC, at 1 µM
T2 sequence (whole entry): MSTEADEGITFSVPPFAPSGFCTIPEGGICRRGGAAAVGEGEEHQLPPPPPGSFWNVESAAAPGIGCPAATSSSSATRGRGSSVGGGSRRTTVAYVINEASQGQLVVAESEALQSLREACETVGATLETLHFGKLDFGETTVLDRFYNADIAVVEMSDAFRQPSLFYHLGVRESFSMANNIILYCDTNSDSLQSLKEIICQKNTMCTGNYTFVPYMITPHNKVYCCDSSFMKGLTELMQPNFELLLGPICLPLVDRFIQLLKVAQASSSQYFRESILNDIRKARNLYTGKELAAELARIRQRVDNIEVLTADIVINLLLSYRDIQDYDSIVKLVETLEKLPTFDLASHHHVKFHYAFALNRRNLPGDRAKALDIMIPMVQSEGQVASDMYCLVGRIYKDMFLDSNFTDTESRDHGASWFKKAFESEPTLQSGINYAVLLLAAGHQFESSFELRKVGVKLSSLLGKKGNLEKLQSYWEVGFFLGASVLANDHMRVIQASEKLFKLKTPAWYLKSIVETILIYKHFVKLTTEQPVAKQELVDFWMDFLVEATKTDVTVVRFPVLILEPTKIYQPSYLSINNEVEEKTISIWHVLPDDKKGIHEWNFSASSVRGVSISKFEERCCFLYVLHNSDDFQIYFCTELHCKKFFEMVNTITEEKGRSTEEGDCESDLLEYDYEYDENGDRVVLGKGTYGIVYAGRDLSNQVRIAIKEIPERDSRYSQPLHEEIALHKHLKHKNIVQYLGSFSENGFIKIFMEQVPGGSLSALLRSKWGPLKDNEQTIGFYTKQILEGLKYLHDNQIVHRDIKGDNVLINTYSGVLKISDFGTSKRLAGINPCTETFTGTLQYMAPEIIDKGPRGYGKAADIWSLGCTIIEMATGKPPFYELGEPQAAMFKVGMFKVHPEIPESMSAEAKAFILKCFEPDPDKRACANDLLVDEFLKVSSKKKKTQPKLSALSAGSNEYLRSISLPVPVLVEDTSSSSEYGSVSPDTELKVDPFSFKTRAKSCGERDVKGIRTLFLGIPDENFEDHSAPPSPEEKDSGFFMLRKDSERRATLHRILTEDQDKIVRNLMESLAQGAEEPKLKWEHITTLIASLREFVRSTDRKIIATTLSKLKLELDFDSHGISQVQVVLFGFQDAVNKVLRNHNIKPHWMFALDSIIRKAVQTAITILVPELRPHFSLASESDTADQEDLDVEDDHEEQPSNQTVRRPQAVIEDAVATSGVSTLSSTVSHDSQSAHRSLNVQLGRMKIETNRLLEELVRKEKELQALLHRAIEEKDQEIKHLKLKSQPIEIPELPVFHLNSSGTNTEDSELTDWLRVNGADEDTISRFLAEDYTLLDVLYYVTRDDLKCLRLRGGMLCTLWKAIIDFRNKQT

Serine/threonine-protein kinase pim-1, sequence (P11309 whole entry, looked up): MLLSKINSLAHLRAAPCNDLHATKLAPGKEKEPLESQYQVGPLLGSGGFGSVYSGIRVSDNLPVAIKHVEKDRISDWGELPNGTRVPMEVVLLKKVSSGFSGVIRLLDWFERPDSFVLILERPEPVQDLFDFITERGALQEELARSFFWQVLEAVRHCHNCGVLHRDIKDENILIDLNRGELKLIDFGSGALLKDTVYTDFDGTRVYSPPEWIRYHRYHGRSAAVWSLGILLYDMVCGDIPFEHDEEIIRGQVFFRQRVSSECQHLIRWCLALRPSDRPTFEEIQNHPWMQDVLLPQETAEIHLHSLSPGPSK
Tyrosine-protein kinase JAK2 (Homo sapiens), O60674 [V617F], sequence (O60674 whole entry V617F): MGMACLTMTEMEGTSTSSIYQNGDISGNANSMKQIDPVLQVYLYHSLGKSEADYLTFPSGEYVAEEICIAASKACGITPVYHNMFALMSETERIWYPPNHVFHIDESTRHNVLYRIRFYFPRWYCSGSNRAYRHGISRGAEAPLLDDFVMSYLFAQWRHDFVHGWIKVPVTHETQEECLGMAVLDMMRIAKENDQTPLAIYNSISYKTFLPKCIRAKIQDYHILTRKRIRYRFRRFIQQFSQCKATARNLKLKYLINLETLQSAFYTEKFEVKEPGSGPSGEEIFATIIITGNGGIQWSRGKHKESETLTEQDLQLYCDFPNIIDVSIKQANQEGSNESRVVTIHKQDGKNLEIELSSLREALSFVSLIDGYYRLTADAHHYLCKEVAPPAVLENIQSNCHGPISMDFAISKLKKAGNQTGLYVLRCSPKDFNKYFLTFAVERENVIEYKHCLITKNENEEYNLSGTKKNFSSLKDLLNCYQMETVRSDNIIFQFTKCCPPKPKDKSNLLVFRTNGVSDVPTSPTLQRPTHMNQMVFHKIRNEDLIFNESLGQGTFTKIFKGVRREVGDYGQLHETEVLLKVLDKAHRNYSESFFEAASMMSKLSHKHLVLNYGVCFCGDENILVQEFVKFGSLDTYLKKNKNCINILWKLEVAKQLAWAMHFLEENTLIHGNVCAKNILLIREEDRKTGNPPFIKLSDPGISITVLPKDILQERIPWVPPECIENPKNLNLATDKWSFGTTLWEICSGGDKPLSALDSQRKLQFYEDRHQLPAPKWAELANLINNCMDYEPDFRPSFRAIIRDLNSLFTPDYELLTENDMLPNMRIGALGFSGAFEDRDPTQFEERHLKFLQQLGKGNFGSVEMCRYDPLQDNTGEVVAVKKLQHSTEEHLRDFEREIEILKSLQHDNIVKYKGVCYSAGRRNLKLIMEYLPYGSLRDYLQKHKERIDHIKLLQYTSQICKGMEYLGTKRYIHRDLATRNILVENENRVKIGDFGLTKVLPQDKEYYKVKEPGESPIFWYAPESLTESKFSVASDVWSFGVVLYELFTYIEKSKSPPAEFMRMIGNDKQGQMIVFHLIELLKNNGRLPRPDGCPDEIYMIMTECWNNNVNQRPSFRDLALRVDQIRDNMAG
Tyrosine-protein kinase JAK2, sequence (O60674 whole entry): as the sequence (O60674 whole entry V617F) above, with F617V counted along it
Serine/threonine-protein kinase MRCK alpha (Homo sapiens), sequence (Q5VT25 whole entry): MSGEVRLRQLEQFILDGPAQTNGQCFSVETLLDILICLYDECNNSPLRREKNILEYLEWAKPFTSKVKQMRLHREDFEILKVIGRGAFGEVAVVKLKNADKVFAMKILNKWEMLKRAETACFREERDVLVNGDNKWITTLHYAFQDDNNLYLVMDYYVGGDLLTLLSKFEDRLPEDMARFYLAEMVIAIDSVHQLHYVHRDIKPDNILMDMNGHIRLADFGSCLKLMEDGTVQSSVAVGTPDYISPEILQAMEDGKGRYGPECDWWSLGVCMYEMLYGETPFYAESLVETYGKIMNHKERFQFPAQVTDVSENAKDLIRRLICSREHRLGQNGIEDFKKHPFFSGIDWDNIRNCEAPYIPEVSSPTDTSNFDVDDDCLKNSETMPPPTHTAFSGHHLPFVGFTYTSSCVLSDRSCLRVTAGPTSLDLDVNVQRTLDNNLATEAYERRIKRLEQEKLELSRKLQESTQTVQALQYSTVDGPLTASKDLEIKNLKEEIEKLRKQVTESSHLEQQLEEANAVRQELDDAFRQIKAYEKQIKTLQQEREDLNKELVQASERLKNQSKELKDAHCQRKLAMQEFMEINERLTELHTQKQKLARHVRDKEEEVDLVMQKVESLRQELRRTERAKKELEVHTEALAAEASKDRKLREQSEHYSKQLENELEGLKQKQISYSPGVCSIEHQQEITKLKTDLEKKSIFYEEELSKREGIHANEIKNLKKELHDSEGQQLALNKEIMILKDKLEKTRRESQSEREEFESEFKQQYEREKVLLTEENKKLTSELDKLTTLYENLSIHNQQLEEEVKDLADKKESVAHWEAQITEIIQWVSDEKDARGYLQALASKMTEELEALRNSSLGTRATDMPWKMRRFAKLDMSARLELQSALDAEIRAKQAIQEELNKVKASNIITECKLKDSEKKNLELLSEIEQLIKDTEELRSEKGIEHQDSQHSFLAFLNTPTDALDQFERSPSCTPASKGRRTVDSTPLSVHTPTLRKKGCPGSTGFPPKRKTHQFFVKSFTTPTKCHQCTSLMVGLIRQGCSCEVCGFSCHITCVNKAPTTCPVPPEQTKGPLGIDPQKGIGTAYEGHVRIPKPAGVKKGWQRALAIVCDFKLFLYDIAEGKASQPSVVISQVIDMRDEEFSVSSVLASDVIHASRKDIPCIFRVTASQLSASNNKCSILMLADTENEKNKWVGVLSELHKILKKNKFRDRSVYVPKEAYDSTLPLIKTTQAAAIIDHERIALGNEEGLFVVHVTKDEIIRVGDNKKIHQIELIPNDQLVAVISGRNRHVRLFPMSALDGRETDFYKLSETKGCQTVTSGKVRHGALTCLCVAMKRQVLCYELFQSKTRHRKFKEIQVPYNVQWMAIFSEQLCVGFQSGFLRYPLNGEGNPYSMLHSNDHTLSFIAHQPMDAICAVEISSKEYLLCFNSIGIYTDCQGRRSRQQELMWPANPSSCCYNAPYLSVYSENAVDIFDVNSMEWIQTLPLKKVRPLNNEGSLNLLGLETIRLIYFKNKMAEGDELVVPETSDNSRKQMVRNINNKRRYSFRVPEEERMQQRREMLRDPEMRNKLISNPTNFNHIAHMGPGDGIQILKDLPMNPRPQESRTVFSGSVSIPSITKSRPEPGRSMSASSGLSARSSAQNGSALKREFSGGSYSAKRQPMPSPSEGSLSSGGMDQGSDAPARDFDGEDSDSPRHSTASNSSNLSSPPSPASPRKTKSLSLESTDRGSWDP

Structure (SMILES): CN(C)C/C=C/C(=O)Nc1ccc(C(=O)N2CCCC(Nc3ncc(Cl)c(-c4c[nH]c5ccccc45)n3)C2)cc1 (configuration not stated)
% of control [1]: 100%

% of control [2]: -2.15%
% of control [3]: -3.18%
% of control [4]: -1.78%
Structure (SMILES): Cn1cc(-n2cnc3c(NCc4nc5cc(Cl)c(Cl)cc5[nH]4)nc(N4CCOCC4)nc32)cn1

Structure (SMILES): CCC(=O)N1CCN(c2ccc(-n3c(=O)ccc4cnc5ccc(-c6cnc7ccccc7c6)cc5c43)cc2C(F)(F)F)CC1
% of control [5]: 0.65%

Structure (SMILES): CN(C)CCOc1ccc(-c2nc(-c3ccncc3)c(-c3ccc4c(c3)CC/C4=N\O)[nH]2)cc1
% of control [6]: 100%

Structure (SMILES): N#Cc1cccc(-c2c[nH]c3ncnc(N4CCOCC4)c23)c1
% of inhibition [7]: 21%

From ChEMBL document CHEMBL5465560, “Selectivity Literature for EUbOPEN Chemogenomic Library” (2024)
